Results reported in ChEMBL document CHEMBL4334532, “Cytotoxic p-Terphenyls from a Marine-Derived Nocardiopsis Species” (J Nat Prod, 2019).
The source made the active and inactive calls. The calls are words filed in the database; no cut-off is given here.

Assays:
HL-60 = test: Cytotoxicity against human HL60 cells measured after 72 hrs by Celltiter-Glo assay; assay type: functional, cell-based; details: HL-60, 72 h
[1] = Cytotoxicity against human SPC-A1 cells overexpressing maspin protein measured after 72 hrs by Celltiter-Glo assay; assay type: functional, cell-based; details: SPCA1, 72 h
U-87 MG = test: Cytotoxicity against human U87 cells measured after 72 hrs by Celltiter-Glo assay; assay type: functional, cell-based, U-87MG ATCC
NCI-N87 = test: Cytotoxicity against human NCI-N87 cells measured after 72 hrs by Celltiter-Glo assay; assay type: functional, cell-based; details: NCI-N87, 72 h
A673 = test: Cytotoxicity against human A673 cells measured after 72 hrs by Celltiter-Glo assay; assay type: functional, cell-based; details: A673, 72 h
MV4-11 = test: Cytotoxicity against human MV4-11 cells measured after 72 hrs by Celltiter-Glo assay; assay type: functional, cell-based; details: MV4-11, 72 h
K562 [2] = test: Cytotoxicity against human K562 cells measured after 72 hrs by Celltiter-Glo assay; assay type: functional, cell-based; details: K562, 72 h
A549 [3] = test: Cytotoxicity against human A549 cells measured after 72 hrs by Celltiter-Glo assay; assay type: functional, cell-based; details: A549, 72 h
BT-474 = test: Cytotoxicity against human BT474 cells measured after 72 hrs by Celltiter-Glo assay; assay type: functional, cell-based; details: BT-474, 72 h
NCI-H1299 = test: Cytotoxicity against human H1299 cells measured after 72 hrs by Celltiter-Glo assay; assay type: functional, cell-based; details: NCI-H1299, 72 h
HuCCT-1 = test: Cytotoxicity against human HuCCT1 cells measured after 72 hrs by Celltiter-Glo assay; assay type: functional, cell-based; details: HuCCT-1, 72 h
B16-F10 = test: Cytotoxicity against mouse B16/F10 cells measured after 72 hrs by Celltiter-Glo assay; assay type: functional, cell-based; details: B16-F10, 72 h
MDA-MB-468 = test: Cytotoxicity against human MDA-MB-468 cells measured after 72 hrs by Celltiter-Glo assay; assay type: functional, cell-based; details: MDA-MB-468, 72 h
NCI-H1975 = test: Cytotoxicity against human NCI-H1975 cells harboring EGFR double L858R/T790M mutant measured after 72 hrs by Celltiter-Glo assay; assay type: functional, cell-based; details: NCI-H1975, 72 h
A-431 = test: Cytotoxicity against human A431 cells measured after 72 hrs by Celltiter-Glo assay; assay type: functional, cell-based; details: A-431, 72 h
U-251 = test: Cytotoxicity against human U251 cells measured after 72 hrs by Celltiter-Glo assay; assay type: functional, cell-based; details: U-251, 72 h
HCC1954 = test: Cytotoxicity against human HCC1954 cells measured after 72 hrs by Celltiter-Glo assay; assay type: functional, cell-based; details: HCC1954, 72 h
MCF7 [4] = test: Cytotoxicity against human MCF7 cells measured after 72 hrs by Celltiter-Glo assay; assay type: functional, cell-based; details: MCF7, 72 h
MKN-45 = test: Cytotoxicity against human MKN45 cells measured after 72 hrs by Celltiter-Glo assay; assay type: functional, cell-based; details: MKN-45, 72 h
DU-145 = test: Cytotoxicity against human DU145 cells measured after 72 hrs by Celltiter-Glo assay; assay type: functional, cell-based; details: DU-145, 72 h
HCT-116 = test: Cytotoxicity against human HCT116 cells measured after 72 hrs by Celltiter-Glo assay; assay type: functional, cell-based; details: HCT-116, 72 h
143B = test: Cytotoxicity against human 143B cells measured after 72 hrs by Celltiter-Glo assay; assay type: functional, cell-based
NCI-H2228 = test: Cytotoxicity against human NCI-H2228 cells measured after 72 hrs by Celltiter-Glo assay; assay type: functional, cell-based; details: NCI-H2228, 72 h
MDA-MB-231 = test: Cytotoxicity against human MDA-MB-231 cells measured after 72 hrs by Celltiter-Glo assay; assay type: functional, cell-based; details: MDA-MB-231, 72 h
KARPAS-299 = test: Cytotoxicity against human KARPAS299 cells measured after 72 hrs by Celltiter-Glo assay; assay type: functional, cell-based; details: KARPAS-299, 72 h
Hep 3B2 = test: Cytotoxicity against human Hep3B cells measured after 72 hrs by Celltiter-Glo assay; assay type: functional, cell-based
L02 = test: Cytotoxicity against human LO2 cells assessed as inhibition of cell growth measured after 72 hrs by MTT assay; assay type: cell-based; details: L02, 72 h
A549 [5] = test: Cytotoxicity against human A549 cells assessed as inhibition of cell growth measured after 72 hrs by MTT assay; assay type: functional, cell-based; details: A549, 72 h
K562 [6] = test: Cytotoxicity against human K562 cells assessed as inhibition of cell growth measured after 72 hrs by CCK-8 assay; assay type: functional, cell-based; details: K562, 72 h
MCF7 [7] = test: Cytotoxicity against human MCF7 cells assessed as inhibition of cell growth measured after 72 hrs by MTT assay; assay type: functional, cell-based; details: MCF7, 72 h
[8] = Cytotoxicity against human P6C cells assessed as inhibition of cell growth measured after 72 hrs by MTT assay; assay type: functional, cell-based
HeLa = test: Cytotoxicity against human HeLa cells; assay type: functional, cell-based

COc1ccc(-c2c3c(c(-c4ccc(OC)cc4)c(O)c2OC)SCC(=O)N3)cc1
IC50 (HL-60): > 100 µM | IC50 [1]: > 100 µM | IC50 (U-87 MG): > 100 µM | IC50 (NCI-N87): > 100 µM | IC50 (A673): > 100 µM | IC50 (MV4-11): > 100 µM | IC50 (K562 [2]): > 100 µM | IC50 (A549 [3]): > 100 µM | IC50 (BT-474): > 100 µM | IC50 (NCI-H1299): > 100 µM | IC50 (HuCCT-1): > 100 µM | IC50 (B16-F10): > 100 µM | IC50 (MDA-MB-468): > 100 µM | IC50 (NCI-H1975): > 100 µM | IC50 (A-431): > 100 µM | IC50 (U-251): > 100 µM | IC50 (HCC1954): > 100 µM | IC50 (MCF7 [4]): > 100 µM | IC50 (MKN-45): > 100 µM | IC50 (DU-145): > 100 µM | IC50 (HCT-116): > 100 µM | IC50 (143B): > 100 µM | IC50 (NCI-H2228): > 100 µM | IC50 (MDA-MB-231): > 100 µM | IC50 (KARPAS-299): > 100 µM | IC50 (Hep 3B2): > 100 µM

COc1ccc(-c2c(OC)c(O)c(-c3ccc(OC)cc3)c3scnc23)cc1
IC50 (L02): 17 µM | IC50 (A549 [5]): 5.1 µM | IC50 (K562 [6]): 0.77 µM | IC50 (MCF7 [7]): 6 µM | IC50 [8]: 9.4 µM

COC1=C(c2ccc(OC)cc2)C(=O)C=C(c2ccc(OC)cc2)C1=O
IC50 (HL-60): 0.17 µM | IC50 [1]: 2 µM | IC50 (U-87 MG): > 100 µM | IC50 (NCI-N87): 1 µM | IC50 (A673): 0.76 µM | IC50 (MV4-11): 0.16 µM | IC50 (K562 [2]): 4.8 µM | IC50 (A549 [3]): 0.48 µM | IC50 (BT-474): 3.6 µM | IC50 (NCI-H1299): 0.72 µM | IC50 (HuCCT-1): 0.2 µM | IC50 (B16-F10): 0.76 µM | IC50 (MDA-MB-468): 1.1 µM | IC50 (NCI-H1975): 3.1 µM | IC50 (A-431): > 100 µM | IC50 (U-251): 4.7 µM | IC50 (HCC1954): 0.48 µM | IC50 (MCF7 [4]): > 100 µM | IC50 (MKN-45): 0.49 µM | IC50 (DU-145): 0.52 µM | IC50 (HCT-116): 1.9 µM | IC50 (143B): 5 µM | IC50 (NCI-H2228): 0.94 µM | IC50 (MDA-MB-231): 2 µM | IC50 (KARPAS-299): > 100 µM | IC50 (Hep 3B2): > 100 µM | Activity (HeLa): Active

COc1ccc(-c2c(OC)c(O)c(-c3ccc(OC)cc3)c3sc(CO)nc23)cc1
IC50 (HL-60): 0.38 µM | IC50 [1]: > 100 µM | IC50 (U-87 MG): > 100 µM | IC50 (NCI-N87): > 100 µM | IC50 (A673): > 100 µM | IC50 (MV4-11): 4 µM | IC50 (K562 [2]): 9 µM | IC50 (A549 [3]): 7.8 µM | IC50 (BT-474): 6 µM | IC50 (NCI-H1299): > 100 µM | IC50 (HuCCT-1): > 100 µM | IC50 (B16-F10): > 100 µM | IC50 (MDA-MB-468): 2.8 µM | IC50 (NCI-H1975): > 100 µM | IC50 (A-431): 4.6 µM | IC50 (U-251): > 100 µM | IC50 (HCC1954): 0.1 µM | IC50 (MCF7 [4]): 18 µM | IC50 (MKN-45): > 100 µM | IC50 (DU-145): > 100 µM | IC50 (HCT-116): > 100 µM | IC50 (143B): 5.5 µM | IC50 (NCI-H2228): 1.7 µM | IC50 (MDA-MB-231): > 100 µM | IC50 (KARPAS-299): > 100 µM | IC50 (Hep 3B2): > 100 µM

COc1ccc(-c2cc(O)c(-c3ccc(OC)cc3)c(OC)c2OC)cc1
IC50 (HL-60): 5 µM | IC50 [1]: 9.8 µM | IC50 (U-87 MG): > 100 µM | IC50 (NCI-N87): > 100 µM | IC50 (A673): 8.9 µM | IC50 (MV4-11): 0.77 µM | IC50 (K562 [2]): 8.9 µM | IC50 (A549 [3]): 9.7 µM | IC50 (BT-474): > 100 µM | IC50 (NCI-H1299): > 100 µM | IC50 (HuCCT-1): > 100 µM | IC50 (B16-F10): > 100 µM | IC50 (MDA-MB-468): 0.67 µM | IC50 (NCI-H1975): 4.4 µM | IC50 (A-431): > 100 µM | IC50 (U-251): > 100 µM | IC50 (HCC1954): 2 µM | IC50 (MCF7 [4]): 17 µM | IC50 (MKN-45): 12 µM | IC50 (DU-145): 1 µM | IC50 (HCT-116): > 100 µM | IC50 (143B): 7.7 µM | IC50 (NCI-H2228): 5 µM | IC50 (MDA-MB-231): 2 µM | IC50 (KARPAS-299): > 100 µM | IC50 (Hep 3B2): > 100 µM

COc1ccc(-c2cc(O)c(-c3ccc(OC)cc3)c(OC)c2O)cc1
IC50 (L02): > 40 µM | IC50 (A549 [5]): > 40 µM | IC50 (K562 [6]): > 40 µM | IC50 (MCF7 [7]): 30 µM | IC50 [8]: > 40 µM

COc1cccc2c1C(=O)c1c(O)c3c(c(O)c1C2=O)C[C@@](O)(C(=O)CO)C[C@@H]3O[C@H]1C[C@H](N)[C@H](O)[C@H](C)O1 [DOXORUBICIN]
IC50 [1]: 0.18 µM | IC50 (U-87 MG): 0.11 µM | IC50 (NCI-N87): 0.047 µM | IC50 (A673): 0.1 µM | IC50 (MV4-11): 0.16 µM | IC50 (K562 [2]): 0.021 µM | IC50 (A549 [3]): 0.11 µM | IC50 (BT-474): 1.9 µM | IC50 (NCI-H1299): 0.5 µM | IC50 (HuCCT-1): 0.048 µM | IC50 (B16-F10): 0.016 µM | IC50 (MDA-MB-468): > 100 µM | IC50 (NCI-H1975): 0.087 µM | IC50 (A-431): 0.16 µM | IC50 (U-251): 0.17 µM | IC50 (HCC1954): 0.045 µM | IC50 (MKN-45): 0.19 µM | IC50 (DU-145): 0.051 µM | IC50 (143B): 0.1 µM | IC50 (NCI-H2228): 0.097 µM | IC50 (KARPAS-299): 0.38 µM | IC50 (Hep 3B2): 16 µM | IC50 (L02): 0.7 µM | IC50 (A549 [5]): 0.58 µM | IC50 (K562 [6]): 0.33 µM | IC50 [8]: 0.71 µM
